Experimental data from patent US12667735B2, “Methods for reducing pain during photodynamic therapy of actinic keratosis” (Sun Pharmaceutical Industries, Inc., priority 2019, dated 2026).

Experiment: Daily home questionnaire of side effects, first 4 days after PDT
Type: in vivo, human
Settings: for Pain Score Mean (0-10 visual-analog scale): average of 23 patients
Experimental: Several secondary endpoints were also measured. For pain assessment, patients were asked every 5 to 10 min during illumination to report their pain on a 0 to 10 visual-analog (VAS) scale. Erythema was recorded photographically at Day 1 and on Day 4 post PDT. A side effect profile was recorded by each patient in a daily home questionnaire to document the presence or absence of eleven different signs and symptoms in the 4 days immediately following PDT (see Table 2).

NCC(=O)CCC(=O)O [ALA, 5-aminolevulinic acid]
Open sores (Side A (test PDT), DAY 2): 9, 9 percentage of patients | Peeling (Side A (test PDT), DAY 2): 4 percentage of patients | Redness (Side A (test PDT), DAY 2): 100, 100 percentage of patients | Stinging (Side A (test PDT), DAY 2): 70, 70 percentage of patients | Swelling (Side A (test PDT), DAY 2): 26, 26 percentage of patients | Pain Score Mean (0-10 visual-analog scale) (Side A (test PDT), DAY 2): 2.5 | Bleeding (Side A (test PDT), DAY 3): 13 percentage of patients | Blisters (Side A (test PDT), DAY 3): 17 percentage of patients | Burning (Side A (test PDT), DAY 3): 35, 35 percentage of patients | Crusting (Side A (test PDT), DAY 3): 30 percentage of patients | Itching (Side A (test PDT), DAY 3): 70 percentage of patients | Open sores (Side A (test PDT), DAY 3): 9, 9 percentage of patients | Peeling (Side A (test PDT), DAY 3): 22 percentage of patients | Redness (Side A (test PDT), DAY 3): 91 percentage of patients | Stinging (Side A (test PDT), DAY 3): 39, 39 percentage of patients | Swelling (Side A (test PDT), DAY 3): 9 percentage of patients | Pain Score Mean (0-10 visual-analog scale) (Side A (test PDT), DAY 3): 1.6 | Bleeding (Side A (test PDT), DAY 4): 17 percentage of patients | Blisters (Side A (test PDT), DAY 4): 4 percentage of patients | Burning (Side A (test PDT), DAY 4): 26, 26 percentage of patients | Crusting (Side A (test PDT), DAY 4): 35, 35 percentage of patients | Itching (Side A (test PDT), DAY 4): 65, 65 percentage of patients | Open sores (Side A (test PDT), DAY 4): 4, 4 percentage of patients | Peeling (Side A (test PDT), DAY 4): 48 percentage of patients | Redness (Side A (test PDT), DAY 4): 83 percentage of patients | Stinging (Side A (test PDT), DAY 4): 35, 35 percentage of patients | Swelling (Side A (test PDT), DAY 4): 0, 0 percentage of patients | Pain Score Mean (0-10 visual-analog scale) (Side A (test PDT), DAY 4): 1.0, 1.0 | Bleeding (Side B (control PDT), DAY 1): 0, 0 percentage of patients | Blisters (Side B (control PDT), DAY 1): 13, 13 percentage of patients | Burning (Side B (control PDT), DAY 1): 65, 65 percentage of patients | Crusting (Side B (control PDT), DAY 1): 4 percentage of patients | Itching (Side B (control PDT), DAY 1): 43, 43 percentage of patients | Open sores (Side B (control PDT), DAY 1): 0, 0 percentage of patients | Peeling (Side B (control PDT), DAY 1): 0 percentage of patients | Redness (Side B (control PDT), DAY 1): 91, 91 percentage of patients | Stinging (Side B (control PDT), DAY 1): 65, 65 percentage of patients | Swelling (Side B (control PDT), DAY 1): 22 percentage of patients | Pain Score Mean (0-10 visual-analog scale) (Side B (control PDT), DAY 1): 2.9 | Bleeding (Side B (control PDT), DAY 2): 0 percentage of patients | Blisters (Side B (control PDT), DAY 2): 9 percentage of patients | Burning (Side B (control PDT), DAY 2): 52, 52 percentage of patients | Crusting (Side B (control PDT), DAY 2): 17 percentage of patients | Itching (Side B (control PDT), DAY 2): 74, 74 percentage of patients | Open sores (Side B (control PDT), DAY 2): 9, 9 percentage of patients | Peeling (Side B (control PDT), DAY 2): 9 percentage of patients | Redness (Side B (control PDT), DAY 2): 100, 100 percentage of patients | Stinging (Side B (control PDT), DAY 2): 70, 70 percentage of patients | Swelling (Side B (control PDT), DAY 2): 26, 26 percentage of patients | Pain Score Mean (0-10 visual-analog scale) (Side B (control PDT), DAY 2): 2.4 | Bleeding (Side B (control PDT), DAY 3): 4 percentage of patients | Blisters (Side B (control PDT), DAY 3): 13 percentage of patients | Burning (Side B (control PDT), DAY 3): 35, 35 percentage of patients | Crusting (Side B (control PDT), DAY 3): 26 percentage of patients | Itching (Side B (control PDT), DAY 3): 65 percentage of patients | Open sores (Side B (control PDT), DAY 3): 9, 9 percentage of patients | Peeling (Side B (control PDT), DAY 3): 26 percentage of patients | Redness (Side B (control PDT), DAY 3): 87 percentage of patients | Stinging (Side B (control PDT), DAY 3): 39, 39 percentage of patients | Swelling (Side B (control PDT), DAY 3): 13 percentage of patients | Pain Score Mean (0-10 visual-analog scale) (Side B (control PDT), DAY 3): 1.5 | Bleeding (Side B (control PDT), DAY 4): 13 percentage of patients | Blisters (Side B (control PDT), DAY 4): 9 percentage of patients | Burning (Side B (control PDT), DAY 4): 26, 26 percentage of patients | Crusting (Side B (control PDT), DAY 4): 35, 35 percentage of patients | Itching (Side B (control PDT), DAY 4): 65, 65 percentage of patients | Open sores (Side B (control PDT), DAY 4): 4, 4 percentage of patients | Peeling (Side B (control PDT), DAY 4): 52 percentage of patients | Redness (Side B (control PDT), DAY 4): 74 percentage of patients | Stinging (Side B (control PDT), DAY 4): 35, 35 percentage of patients | Swelling (Side B (control PDT), DAY 4): 0, 0 percentage of patients | Pain Score Mean (0-10 visual-analog scale) (Side B (control PDT), DAY 4): 1.0, 1.0 | Major inflammatory parameters, Side A versus Side B (first 4 days post-treatment): no noticeable differences
